# Reference: US8293790B2, “Pharmaceutical compositions comprising DGLA and benzoyl peroxide and methods of use thereof” (Dignity Sciences Limited, priority 2011, dated 2012)
# System: P. acnes
# Experiment: Agar dilution method: growth of P. acnes and MIC, compounds tested singly
# Type: cell-based, Propionibacterium acnes
# Set-up: key to Growth Index (+++, ++, +, −) Plate 1 / Growth Index (+++, ++, +, −) Plate 2 / Growth Index (+++, ++, +, −) Plate 3 / Growth Index (+++, ++, +, −) Avg: +++: confluent growth (comparable to control); ++: less confluent growth; +: marked reduction in growth to multiple tiny, single colonies; −: no growth present
# Conditions: for MIC: Cutibacterium acnes, compound alone, MIC = concentration with marked reduction (+) of growth, read-out: MIC (mg/mL) as per P-11-0007 or P-11-0008 Addendum A
# Protocol: Several compounds including fatty acids such as DGLA, 15-OHEPA, and 15-HETrE were tested to determine their capacity to inhibit the growth of P. acnes. In an exemplary method, an agar dilution method was used to determine the minimum inhibitory concentration (MIC) of each tested compound. Briefly, the agar dilution method involved preparing a series of concentrations of each compound (e.g., nicotinamide, benzoyl peroxide, adapalene, metronidazole, DGLA, 15-OHEPA, and 15-HETrE) in a Reinforced Clostridial Agar (RCA) media that facilitates growth of P. acnes under anaerobic conditions. An inoculum of P. acnes was prepared by incubation of P. acnes for approximately seven days at 35-37° C. to achieve a ≧1.0 OD600 inoculum of P. acnes in RCM broth. A portion of this inoculum was then added to the surface of each plate as a 10 μL spot and incubated at 35-37° C. for 72 hours or more. Growth of P. acnes was then observed and compared to control plates in which no compound has been added, and positive inhibition plates prepared with erythromycin. […] The growth of P. acnes in the presence of nicotinamide, benzoyl peroxide, adapalene, metronidazole, DGLA, 15-OHEPA, and 15-HETrE was determined with varying concentrations of the compound (see, Table 2). Next, the MIC was determined as the concentration at which a marked reduction (+) occurs in the appearance of growth on the test plate (as per Clinical and Laboratory Standards Institute M11-A7).
# [1] = compound at 0.00001 mg/mL in agar
# [2] = compound at 0.0001 mg/mL in agar
# [3] = compound at 0.001 mg/mL in agar
# [4] = compound at 0.010 mg/mL in agar
# [5] = compound at 0.025 mg/mL in agar
# [6] = compound at 0.050 mg/mL in agar
# [7] = compound at 0.075 mg/mL in agar
smiles,measurement,setting,value
"CCCCCC(O)/C=C/C=C\C/C=C\CCCCCCC(=O)O (stereo not shown) [15-HETrE, 15-Hydroxy-eicosa-8(Z),11(Z),13(E)-trienoic acid]",effect on growth of P. acnes on its own,0.01 mg/ml,no effect on its own
same,"Growth Index (+++, ++, +, −) Avg",[1],+++
same,"Growth Index (+++, ++, +, −) Plate 1",[1],+++
same,"Growth Index (+++, ++, +, −) Plate 2",[1],+++
same,"Growth Index (+++, ++, +, −) Plate 3",[1],+++
same,"Growth Index (+++, ++, +, −) Avg",[2],+++
same,"Growth Index (+++, ++, +, −) Plate 1",[2],+++
same,"Growth Index (+++, ++, +, −) Plate 2",[2],+++
same,"Growth Index (+++, ++, +, −) Plate 3",[2],+++
same,"Growth Index (+++, ++, +, −) Avg",[3],+++
same,"Growth Index (+++, ++, +, −) Plate 1",[3],+++
same,"Growth Index (+++, ++, +, −) Plate 2",[3],+++
same,"Growth Index (+++, ++, +, −) Plate 3",[3],+++
same,"Growth Index (+++, ++, +, −) Avg",compound at 0.01 mg/mL in agar,++
same,"Growth Index (+++, ++, +, −) Plate 1",compound at 0.01 mg/mL in agar,++
same,"Growth Index (+++, ++, +, −) Plate 2",compound at 0.01 mg/mL in agar,+++
same,"Growth Index (+++, ++, +, −) Plate 3",compound at 0.01 mg/mL in agar,++
"CCC=CCC(O)C=CC=CCC=CCC=CCCCC(=O)O (stereo not shown) [15-OHEPA, 15-Hydroxy-eicosa-5,8,11,13,17-pentaenoic acid]",effect on growth of P. acnes on its own,0.05 mg/mL,no effect on its own
same,MIC,,50 to 75 µg/mL
same,"Growth Index (+++, ++, +, −) Avg",[4],+++
same,"Growth Index (+++, ++, +, −) Plate 1",[4],+++
same,"Growth Index (+++, ++, +, −) Plate 2",[4],+++
same,"Growth Index (+++, ++, +, −) Plate 3",[4],+++
same,"Growth Index (+++, ++, +, −) Avg",[5],+++
same,"Growth Index (+++, ++, +, −) Plate 1",[5],+++
same,"Growth Index (+++, ++, +, −) Plate 2",[5],+++
same,"Growth Index (+++, ++, +, −) Plate 3",[5],+++
same,"Growth Index (+++, ++, +, −) Avg",[6],+++
same,"Growth Index (+++, ++, +, −) Plate 1",[6],+++
same,"Growth Index (+++, ++, +, −) Plate 2",[6],+++
same,"Growth Index (+++, ++, +, −) Plate 3",[6],+++
same,"Growth Index (+++, ++, +, −) Avg",[7],+
same,"Growth Index (+++, ++, +, −) Plate 1",[7],+
same,"Growth Index (+++, ++, +, −) Plate 2",[7],+
same,"Growth Index (+++, ++, +, −) Plate 3",[7],+
"CCCCC/C=C\C/C=C\C/C=C\CCCCCCC(=O)O [DGLA, cis-8,11,14-eicosatrienoic acid]",effect on growth of P. acnes on its own,0.4 mg/ml,no effect on its own
same,MIC,,400 to 600 µg/mL
same,"Growth Index (+++, ++, +, −) Avg",compound at 0.2 mg/mL in agar,+++
same,"Growth Index (+++, ++, +, −) Plate 1",compound at 0.2 mg/mL in agar,+++
same,"Growth Index (+++, ++, +, −) Plate 2",compound at 0.2 mg/mL in agar,+++
same,"Growth Index (+++, ++, +, −) Plate 3",compound at 0.2 mg/mL in agar,+++
same,"Growth Index (+++, ++, +, −) Avg",compound at 0.4 mg/mL in agar,+++
same,"Growth Index (+++, ++, +, −) Plate 1",compound at 0.4 mg/mL in agar,+++
same,"Growth Index (+++, ++, +, −) Plate 2",compound at 0.4 mg/mL in agar,+++
same,"Growth Index (+++, ++, +, −) Plate 3",compound at 0.4 mg/mL in agar,+++
same,"Growth Index (+++, ++, +, −) Avg",compound at 0.6 mg/mL in agar,+
same,"Growth Index (+++, ++, +, −) Plate 1",compound at 0.6 mg/mL in agar,++
same,"Growth Index (+++, ++, +, −) Plate 2",compound at 0.6 mg/mL in agar,−
same,"Growth Index (+++, ++, +, −) Plate 3",compound at 0.6 mg/mL in agar,++
same,"Growth Index (+++, ++, +, −) Avg",compound at 0.8 mg/mL in agar,+
same,"Growth Index (+++, ++, +, −) Plate 1",compound at 0.8 mg/mL in agar,++
same,"Growth Index (+++, ++, +, −) Plate 2",compound at 0.8 mg/mL in agar,+
same,"Growth Index (+++, ++, +, −) Plate 3",compound at 0.8 mg/mL in agar,+
same,"Growth Index (+++, ++, +, −) Avg",compound at 1.0 mg/mL in agar,+
same,"Growth Index (+++, ++, +, −) Plate 1",compound at 1.0 mg/mL in agar,+
same,"Growth Index (+++, ++, +, −) Plate 2",compound at 1.0 mg/mL in agar,+
same,"Growth Index (+++, ++, +, −) Plate 3",compound at 1.0 mg/mL in agar,+
CC[C@H]1OC(=O)[C@H](C)[C@@H](O[C@H]2C[C@@](C)(OC)[C@@H](O)[C@H](C)O2)[C@H](C)[C@@H](O[C@@H]2O[C@H](C)C[C@H](N(C)C)[C@H]2O)[C@](C)(O)C[C@@H](C)C(=O)[C@H](C)[C@@H](O)[C@]1(C)O [Erythromycin],MIC,,0.01 to 0.05 µg/mL
